In ChEMBL document CHEMBL1146818, “Yeast and mammalian alpha-glucosidase inhibitory constituents from Himalayan rhubarb Rheum emodi Wall.ex Meisson” (Bioorg Med Chem Lett, 2004):
Active and inactive are the calls of the source. The calls are words filed in the database; no cut-off is given here.

Legend:
[1] = biological target: Sucrase-isomaltase, intestinal (Rattus norvegicus) (UniProt P23739); experiment: Inhibitory activity against rat alpha-glucosidase; moderate activity observed
[2] = Inhibitory activity against yeast alpha-glucosidase; active; conditions: Saccharomyces cerevisiae
[3] = biological target: Sucrase-isomaltase, intestinal (Rattus norvegicus) (UniProt P23739); experiment: Inhibitory activity against rat alpha-glucosidase; mild activity observed
[4] = Inhibitory activity against yeast alpha-glucosidase; mild activity observed; conditions: Saccharomyces cerevisiae

Chain of Sucrase-isomaltase, intestinal (Rattus norvegicus) (P23739 1-1013 limits assumed): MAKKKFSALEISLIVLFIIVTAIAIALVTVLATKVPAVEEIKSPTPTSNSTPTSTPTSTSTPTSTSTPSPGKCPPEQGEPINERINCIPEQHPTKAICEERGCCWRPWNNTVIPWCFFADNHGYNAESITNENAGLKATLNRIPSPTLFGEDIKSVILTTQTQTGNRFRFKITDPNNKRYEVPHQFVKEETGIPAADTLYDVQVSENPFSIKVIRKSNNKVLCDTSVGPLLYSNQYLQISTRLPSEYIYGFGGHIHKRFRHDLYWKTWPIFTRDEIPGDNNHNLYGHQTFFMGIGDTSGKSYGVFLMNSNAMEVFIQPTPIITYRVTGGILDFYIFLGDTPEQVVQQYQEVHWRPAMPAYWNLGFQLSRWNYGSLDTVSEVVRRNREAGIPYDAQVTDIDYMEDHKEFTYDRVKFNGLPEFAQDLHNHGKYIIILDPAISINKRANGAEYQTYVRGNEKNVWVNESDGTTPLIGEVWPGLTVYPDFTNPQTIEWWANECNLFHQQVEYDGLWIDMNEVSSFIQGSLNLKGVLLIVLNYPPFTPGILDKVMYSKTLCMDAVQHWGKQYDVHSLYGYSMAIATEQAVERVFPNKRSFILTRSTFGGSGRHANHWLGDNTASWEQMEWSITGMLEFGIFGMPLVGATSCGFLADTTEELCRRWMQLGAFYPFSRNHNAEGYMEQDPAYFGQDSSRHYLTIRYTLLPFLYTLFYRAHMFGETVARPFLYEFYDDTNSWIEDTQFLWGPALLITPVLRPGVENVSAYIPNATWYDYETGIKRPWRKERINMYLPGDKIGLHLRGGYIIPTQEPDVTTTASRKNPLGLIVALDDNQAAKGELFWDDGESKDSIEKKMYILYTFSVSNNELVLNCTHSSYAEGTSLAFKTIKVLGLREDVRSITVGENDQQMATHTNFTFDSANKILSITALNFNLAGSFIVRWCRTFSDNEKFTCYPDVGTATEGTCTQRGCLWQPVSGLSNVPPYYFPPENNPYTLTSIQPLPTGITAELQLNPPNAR
Chain of Sucrase-isomaltase, intestinal (Rattus norvegicus) (P23739 1014-1841 limits assumed): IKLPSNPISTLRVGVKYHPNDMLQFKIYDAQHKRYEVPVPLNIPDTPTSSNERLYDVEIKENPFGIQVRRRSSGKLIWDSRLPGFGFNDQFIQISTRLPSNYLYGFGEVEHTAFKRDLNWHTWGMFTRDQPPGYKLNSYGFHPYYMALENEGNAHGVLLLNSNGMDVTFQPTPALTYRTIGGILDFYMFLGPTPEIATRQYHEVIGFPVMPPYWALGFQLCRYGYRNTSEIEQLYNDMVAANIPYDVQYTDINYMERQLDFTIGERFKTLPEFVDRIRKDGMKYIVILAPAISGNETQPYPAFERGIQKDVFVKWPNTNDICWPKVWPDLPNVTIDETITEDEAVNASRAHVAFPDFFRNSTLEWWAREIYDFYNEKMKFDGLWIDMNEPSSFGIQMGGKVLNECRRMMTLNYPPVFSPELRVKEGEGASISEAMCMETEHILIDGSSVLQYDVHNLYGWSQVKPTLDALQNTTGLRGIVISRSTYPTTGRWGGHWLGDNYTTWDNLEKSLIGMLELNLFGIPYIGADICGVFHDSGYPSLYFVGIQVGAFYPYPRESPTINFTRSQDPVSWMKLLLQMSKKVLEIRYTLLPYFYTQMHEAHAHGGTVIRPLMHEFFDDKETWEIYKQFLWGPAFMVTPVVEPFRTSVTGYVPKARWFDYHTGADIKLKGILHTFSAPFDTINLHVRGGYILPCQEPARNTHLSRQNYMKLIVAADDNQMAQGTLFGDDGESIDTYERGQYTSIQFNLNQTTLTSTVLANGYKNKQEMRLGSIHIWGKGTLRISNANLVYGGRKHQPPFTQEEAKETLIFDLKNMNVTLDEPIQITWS

Row | Compound | inhibition [1] | inhibition [2] | inhibition [3] | inhibition [4]
1 | COc1ccc(/C=C/c2cc(O)cc(O[C@@H]3C[C@H](CO)[C@@H](O)[C@H](O)[C@H]3O)c2)cc1 | – | – | Weak activity | –
2 | COc1cc(O)c2c(c1)C(=O)c1cc(C)cc(O)c1C2=O | – | – | Weak activity | Weak activity
3 | Cc1cc(O)c2c(c1)C(=O)c1cccc(O[C@@H]3C[C@H](CO)[C@@H](O)[C@H](O)[C@H]3O)c1C2=O | moderate activity observed | Active | – | –

The remaining lines, values ahead:

Row | inhibition [1] | inhibition [2] | inhibition [3] | inhibition [4] | Compound
4 | moderate activity observed | Active | – | – | COc1cc(O[C@@H]2C[C@H](CO)[C@@H](O)[C@H](O)[C@H]2O)c2c(O)c(C(C)=O)c(C)cc2c1
5 | – | Active | – | – | COc1ccc(/C=C/c2cc(O)cc(O)c2)cc1O
6 | – | – | Weak activity | Weak activity | Cc1cc(=O)c2c(O)cc(O)cc2o1
